The test deals with P388 leukemia ip, CD2F1 mice, survival T/C. Kind of test: NCI In Vivo Anticancer Drug Screen. Data for tumor model P388 Leukemia (intraperitoneal) in CD2F1 (CDF1) mice. The following applies: endpoint: median survival time, higher = longer survival. The method in brief:
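Mice carrying the transplanted tumor received test compound or vehicle. Survival was recorded in each group, and the value is the treated-group measurement divided by that of the vehicle-treated control group.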

The mark [1] stands for this setting: dose: 50.0 mg/kg/injection, schedule: Q01DX009 (ip), vehicle: Klucel (hydroxypropylcellulose) (HPC).
Where [2] appears, read: dose: 100.0 mg/kg/injection, schedule: Q01DX009 (ip), vehicle: Klucel (hydroxypropylcellulose) (HPC).

Molecules are shown by their SMILES. “And” between values parts separate entries of the source, which are not always exact repeats. Equal entries are not always repeated. Toxic doses and inconclusive results are not listed.

As for `NCCc1c[nH]c2ccc(O)cc12` (tested in a mixture with another compound), the T/C was 113 % of control (dose: 50.0 mg/kg/injection, schedule: Q01DX009 (ip), vehicle: other); 102 % of control (dose: 60.0 mg/kg/injection, schedule: Q01DX005 (ip), vehicle: saline); 109 % of control (dose: 100.0 mg/kg/injection, schedule: Q01DX009 (ip), vehicle: other); 100 % of control (dose: 120.0 mg/kg/injection, schedule: Q01DX005 (ip), vehicle: saline); 91 % of control (dose: 200.0 mg/kg/injection, schedule: Q01DX009 (ip), vehicle: other); 99 % of control (dose: 240.0 mg/kg/injection, schedule: Q01DX005 (ip), vehicle: saline).
Consider `C=CCc1cc2c(cc1Cc1ccc(OC)cc1)OCO2`, for which the T/C by setting is: (dose: 50.0 mg/kg/injection, schedule: Q01DX005 (ip), vehicle: distilled water + alcohol) 109 % of control; (dose: 100.0 mg/kg/injection, schedule: Q01DX005 (ip), vehicle: distilled water + alcohol) 104 % of control; (dose: 200.0 mg/kg/injection, schedule: Q01DX005 (ip), vehicle: distilled water + alcohol) 109 % of control.
Consider `CNC(=O)OCc1c(COC(=O)NC)c(-c2cccs2)n2c1CCC2`, for which the T/C was 122 % of control (dose: 12.5 mg/kg/injection, schedule: Q01DX005 (ip), vehicle: saline with Tween-80) and 104 % of control (dose: 50.0 mg/kg/injection, schedule: Q01DX005 (ip), vehicle: saline with Tween-80).
Take `CC(C)OC(=O)NC1CCC2CCCCC2C1` (centres undefined): the T/C reads like this: (dose: 50.0 mg/kg/injection, schedule: Q01DX009 (ip), vehicle: saline) 102 % of control; (dose: 100.0 mg/kg/injection, schedule: Q01DX009 (ip), vehicle: saline) 102 % of control; (dose: 200.0 mg/kg/injection, schedule: Q01DX009 (ip), vehicle: saline) 100 % of control.
As for `COc1ccc(/C=C/C(=O)C(CN(C)C)CN(C)C)cc1OC`, the T/C (dose: 0.78 mg/kg/injection, schedule: Q01DX005 (ip), vehicle: Klucel (hydroxypropylcellulose) (HPC)) is 106 % of control; the T/C (dose: 1.56 mg/kg/injection, schedule: Q01DX005 (ip), vehicle: Klucel (hydroxypropylcellulose) (HPC)) is 102 % of control; the T/C (dose: 3.12 mg/kg/injection, schedule: Q01DX005 (ip), vehicle: Klucel (hydroxypropylcellulose) (HPC)) was 104 % of control.
Consider `FC(F)(F)c1ccc(C2(c3ccccc3)C=C(c3ccccc3)SC(c3ccccc3)=C2)cc1`, for which the T/C reads like this: under setting [1], 102 % of control; under setting [2], 94 % of control; (dose: 200.0 mg/kg/injection, schedule: Q01DX009 (ip), vehicle: Klucel (hydroxypropylcellulose) (HPC)) 97 % of control.
For the compound `Cn1c(O)c(N=O)c(=O)[nH]c1=O`, the T/C was 95 % of control (dose: 50.0 mg/kg/injection, schedule: Q01DX009 (ip), vehicle: saline with Tween-80); 99 % of control (dose: 100.0 mg/kg/injection, schedule: Q01DX009 (ip), vehicle: saline with Tween-80); 100 % of control (dose: 100.0 mg/kg/injection, schedule: Q04DX002 (ip), vehicle: saline with Tween-80); 87 % of control (dose: 200.0 mg/kg/injection, schedule: Q01DX009 (ip), vehicle: saline with Tween-80).
Regarding `Cc1c(C(N)=O)c(-c2ccccc2)c(-c2ccccc2)n1Nc1ccccc1`, the T/C (dose: 60.0 mg/kg/injection, schedule: Q01DX005 (ip), vehicle: Klucel (hydroxypropylcellulose) (HPC)) was 95 % of control; the T/C (dose: 120.0 mg/kg/injection, schedule: Q01DX005 (ip), vehicle: Klucel (hydroxypropylcellulose) (HPC)) was 96 % of control; the T/C (dose: 240.0 mg/kg/injection, schedule: Q01DX005 (ip), vehicle: Klucel (hydroxypropylcellulose) (HPC)) is 92 % of control.
With `c1c[n+](CC2CO2)ccc1-c1cc[n+](CC2CO2)cc1` (centres undefined), the T/C is, setting by setting: (dose: 25.0 mg/kg/injection, schedule: Q01DX009 (ip), vehicle: Klucel (hydroxypropylcellulose) (HPC)) 120 % of control; (dose: 40.0 mg/kg/injection, schedule: Q01DX009 (ip), vehicle: Klucel (hydroxypropylcellulose) (HPC)) 162 % of control; under setting [1], 163 % of control; (dose: 80.0 mg/kg/injection, schedule: Q01DX009 (ip), vehicle: Klucel (hydroxypropylcellulose) (HPC)) 159 % of control; under setting [2], 161 % of control.
`CCCC(O)CN` (centres undefined): the T/C by setting is: (dose: 100.0 mg/kg/injection, schedule: Q04DX003 (ip), vehicle: saline) 103 % of control; (dose: 200.0 mg/kg/injection, schedule: Q04DX003 (ip), vehicle: saline) 107 % of control.
For the compound `CC(C)NC(=O)OCc1c(COC(=O)NC(C)C)c(-c2ccc(Cl)c(Cl)c2)n2c1C[C@@H](OC(=O)CCC(=O)O)C2` (tested in a mixture with another compound), the T/C was 106 % of control and 107 % of control (dose: 12.5 mg/kg/injection, schedule: Q01DX005 (ip), vehicle: water); 107 % of control and 108 % of control (dose: 25.0 mg/kg/injection, schedule: Q01DX005 (ip), vehicle: water); 111 % of control and 123 % of control (dose: 50.0 mg/kg/injection, schedule: Q01DX005 (ip), vehicle: water); 103 % of control (dose: 50.0 mg/kg/injection, schedule: Q04DX002 (ip), vehicle: water); 111 % of control (dose: 100.0 mg/kg/injection, schedule: Q04DX002 (ip), vehicle: water); 107 % of control (dose: 200.0 mg/kg/injection, schedule: Q04DX002 (ip), vehicle: water).
Consider `O=CCC1CC2CCCCN2O1` (centres undefined), for which the T/C by setting is: (dose: 25.0 mg/kg/injection, schedule: Q04DX003 (ip), vehicle: saline with Tween-80) 102 % of control; (dose: 50.0 mg/kg/injection, schedule: Q04DX003 (ip), vehicle: saline with Tween-80) 101 % of control; (dose: 100.0 mg/kg/injection, schedule: Q04DX003 (ip), vehicle: saline with Tween-80) 108 % of control.
Take `CN(C)C1CCC(NC2=CC(=O)C=CC2=O)CC1` (centres undefined): the T/C by setting is: (dose: 0.78 mg/kg/injection, schedule: Q01DX005 (ip), vehicle: saline) 101 % of control; (dose: 1.56 mg/kg/injection, schedule: Q01DX005 (ip), vehicle: saline) 97 % of control; (dose: 3.12 mg/kg/injection, schedule: Q01DX005 (ip), vehicle: saline) 97 % of control.
For `C=CCc1c2[n+](cc3c(OC)c(OC)ccc13)CCc1cc3c(cc1-2)OCO3`, the T/C reads like this: (dose: 0.4 mg/kg/injection, schedule: Q01DX005 (ip), vehicle: saline) 107 % of control and 92 % of control; (dose: 0.8 mg/kg/injection, schedule: Q01DX005 (ip), vehicle: saline) 99 % of control and 111 % of control; (dose: 1.6 mg/kg/injection, schedule: Q01DX005 (ip), vehicle: saline) 100 % of control and 103 % of control.
With `CC(C)Nc1nc(Cl)nc(Cl)n1`, the T/C reads like this: (dose: 50.0 mg/kg/injection, schedule: Q01DX005 (ip), vehicle: Klucel (hydroxypropylcellulose) (HPC)) 98 % of control; (dose: 100.0 mg/kg/injection, schedule: Q01DX005 (ip), vehicle: Klucel (hydroxypropylcellulose) (HPC)) 93 % of control.
Regarding `CC(C)=CCC(OC1OC(CO)C(O)C(O)C1O)C1=CC(=O)c2c(O)ccc(O)c2C1=O` (centres undefined), the T/C reads like this: (dose: 12.5 mg/kg/injection, schedule: Q04DX002 (ip), vehicle: saline with Tween-80) 119 % of control; (dose: 25.0 mg/kg/injection, schedule: Q04DX002 (ip), vehicle: saline with Tween-80) 115 % of control.
With `COc1ccc2c(c1OC)C[N+]1([O-])CCc3cc4c(cc3C1C2)OCO4` (centres undefined), the T/C reads like this: (dose: 0.63 mg/kg/injection, schedule: Q01DX009 (ip), vehicle: distilled water + Tween-80) 91 % of control; (dose: 1.25 mg/kg/injection, schedule: Q01DX009 (ip), vehicle: distilled water + Tween-80) 92 % of control; (dose: 2.5 mg/kg/injection, schedule: Q01DX009 (ip), vehicle: distilled water + Tween-80) 92 % of control; (dose: 5.0 mg/kg/injection, schedule: Q01DX009 (ip), vehicle: distilled water + Tween-80) 90 % of control; (dose: 10.0 mg/kg/injection, schedule: Q01DX009 (ip), vehicle: distilled water + Tween-80) 97 % of control; (dose: 20.0 mg/kg/injection, schedule: Q01DX009 (ip), vehicle: distilled water + Tween-80) 106 % of control.
In the case of `O=C(Nc1ccc(C2=NCCN2)cc1)c1ccc(C(=O)Nc2ccc(C3=NCCN3)cc2)c(Cl)c1`, the T/C is, setting by setting: (dose: 0.2 mg/kg/injection, schedule: Q01DX009 (ip), vehicle: saline with Tween-80) 99 % of control; (dose: 0.39 mg/kg/injection, schedule: Q01DX009 (ip), vehicle: saline with Tween-80) 117 % of control; (dose: 0.78 mg/kg/injection, schedule: Q01DX009 (ip), vehicle: saline with Tween-80) 122 % of control; (dose: 20.0 mg/kg/injection, schedule: Q01DX010 (ip), vehicle: water) 163 % of control; (dose: 45.0 mg/kg/injection, schedule: Q04DX003 (ip), vehicle: saline) 95 % of control.

These data come from PubChem BioAssay AID330 (DTP/NCI, 2004).
